Measured values reported in paper PMC9841531, “Indole Derivatives as New Structural Class of Potent and Antiproliferative Inhibitors of Monocarboxylate Transporter 1 (MCT1; SLC16A1)” (Journal of Medicinal Chemistry, 2022).

Assays:
[1] = tested on: ABCB1-expressing A2780/ADR cells; experiment: MTT-based efficacy (MDR-reversal) assay, 33 in combination with test compound, A2780/ADR; type: cell-based; conditions: for sensitization of ABCB1-expressing A2780/ADR cells against 33: 5 μM; for EC50: from resistance factors of 33 (A2780/ADR vs A2780) against compound concentration, read-out: half-maximal reversal concentration (EC50)
Procedure: This sensitization is indicated by a shift of the concentration-effect curve of compound 33 from the right (=high concentrations of 33 needed to induce A2780/ADR cell death) to the left (=lower concentrations of 33 needed to induce A2780/ADR cell death). The concentration-effect curve of compound 33 in combination with 5 μM of either compound 24 or 30 resembles the concentration-effect curve of the sensitive cell line A2780. […] Thus, their potentiating effect with respect to the antiproliferative agent 33 against ABCB1-expressing A2780/ADR cells is due to the inhibition of ABCB1. Therefore, compounds 24 and 30 were dually effective against MCT1- and ABCB1-expressing cells (Table 5).
An MDR-reversal assay[2],[55]−[59] was used to investigate the ability to reverse ABCB1-mediated MDR in A2780/ADR cells toward the cytotoxic ABCB1 substrate 33. […] A dilution series of 33 at concentrations between 0.1 μM and 100 μM was generated, and 20 μL of each concentration was transferred onto the plates (final concentration: 0.01–10 μM). The plates were incubated for 72 h at 37 °C and a 5% CO2-humidified atmosphere, before subsequent processing with the regular MTT assay as described above. The observed effects of compounds 24 and 30 were compared to the effect of 33 alone on A2780/ADR cells as well as its sensitive counterpart A2780 (∼10,000 cells/well).

ABCB1 [2] = target: T1, ABCB1 (Homo sapiens, UniProt P08183); experiment: calcein AM assay, ABCB1-expressing A2780/ADR cells; conditions: for IC50: read-out: ABCB1 calcein AM IC50 ± SEM, A2780/ADR cells, 22, 23 constrained to reference inhibitor 34; for ABCB1 inhibition: screening at 10 μM, inhibitor if 20% (+SEM) reached
From the text: To provide a detailed picture of the pharmacological profile of the indole derivatives, we investigated their modulatory nature on the most prominent ABC transporters ABCB1 (P-glycoprotein, P-gp), ABCC1, (multidrug resistance-associated protein 1, MRP1), and ABCG2 (breast cancer resistance protein, BCRP). Here, we conducted calcein AM (ABCB1),[2],[52]−[59] daunorubicin (ABCC1),[52],[58]−[60] and pheophorbide A (ABCG2)[2],[52]−[60] assays using ABCB1-expressing A2780/ADR, ABCC1-expressing H69AR, and ABCG2-expressing MDCK II BCRP cells, respectively.
The calcein AM (ABCB1),[2],[52]−[59] daunorubicin (ABCB1[52],[60] and ABCC1[52],[58]−[60]), and pheophorbide A (ABCG2)[2],[52]−[60] assays were conducted as reported earlier. […] The data was processed using GraphPad Prism version 8.4.0, and IC50 values were determined, applying three- or four-parameter logistic equations, whatever was statistically preferred.

MCF-7 cancer cells = experiment: MTT-based cell viability assay, MCF-7; conditions: Homo sapiens, MCF7, 72 h, read-out: MCF-7 cancer cell toxicity GI50 ± SEM
From the text: (§1) MCT1-expressing cells have an extraordinary energy demand and rely on pyruvate metabolism, through either lactate conversion or pyruvate consumption. Inhibition of MCT1 blocks lactate and pyruvate influx into cancer cells, which prevents their processing in the TCA cycle. Over time, the viability of cells exposed to an MCT1 inhibitor is impaired due to pyruvate deprivation, which is compensated by upregulating glucose metabolism—leading to an overconsumption of glucose. To confirm the antiproliferative nature of the indole derivatives, we investigated the compounds toward the MCT1-expressing cell lines A-549[14],[15] and MCF-7.[16] Cancer cell viability was assessed via a 3-(4,5-dimethylthiazol-2-yl)-2,5-diphenyltetrazolium bromide (MTT) assay, as reported earlier.[43]
(§2) To determine the growth inhibitory potential of compounds 17–32, […] of each compound either at concentrations between 1 and 100 μM (A-549 or MCF-7) or at 10 and 50 μM (NIH/3T3) was pipetted into colorless flat-bottom 96-well microplates. Thereafter, 180 μL of a cell suspension (5000 cells/well) of either A-549, MCF-7, or NIH/3T3 cells was added and subsequently kept for 72 h at 37 °C under a 5% CO2-humidified atmosphere. The cell viability as well as the GI50 values were determined as described above.[43]

ABCB1 [3] = target: T1, ABCB1; experiment: daunorubicin assay, ABCB1-expressing A2780/ADR cells; type: cell-based; conditions: A2780/ADR cells; read-out: ABCB1 daunorubicin IC50 ± SEM
[4] = tested on: MCT1-expressing A-549 cells; experiment: MTT-based efficacy assay, 33 in combination with test compound, A-549; type: cell-based; conditions: for factor of sensitization of A-549 cells against 33: shift of concentration-effect curve of 33; for Increase Susceptibility toward 33 (Factor): supplement csv
Procedure: MCT1 inhibition anticipates challenging cancer cell energy supply and, thus, increases the efficacy of anticancer agents.
For this purpose, 10 μL of compounds 24 or 30 (50 nM, 100 nM, or 500 nM) was transferred onto a colorless flat-bottom 96-well microplate and complemented with 180 μL of a cell suspension containing either approximately 5,000 A-549 cells. A dilution series of compound 33 at concentrations between 50 nM and 50 μM was generated, and 10 μL of each concentration was transferred onto the plate. The observed effects of compounds 24 and 30 were compared to the effect of compound 33 alone on A-549. The plates were incubated for 72 h at 37 °C and a 5% CO2-humidified atmosphere, before subsequent processing with the regular MTT assay as described above.[43]

A-549 cancer cells = experiment: MTT-based cell viability assay, A-549; conditions: Homo sapiens, A549, 72 h, read-out: A-549 cancer cell toxicity GI50 ± SEM
From the text: as §1, §2

T1 sequence (P08183 whole entry): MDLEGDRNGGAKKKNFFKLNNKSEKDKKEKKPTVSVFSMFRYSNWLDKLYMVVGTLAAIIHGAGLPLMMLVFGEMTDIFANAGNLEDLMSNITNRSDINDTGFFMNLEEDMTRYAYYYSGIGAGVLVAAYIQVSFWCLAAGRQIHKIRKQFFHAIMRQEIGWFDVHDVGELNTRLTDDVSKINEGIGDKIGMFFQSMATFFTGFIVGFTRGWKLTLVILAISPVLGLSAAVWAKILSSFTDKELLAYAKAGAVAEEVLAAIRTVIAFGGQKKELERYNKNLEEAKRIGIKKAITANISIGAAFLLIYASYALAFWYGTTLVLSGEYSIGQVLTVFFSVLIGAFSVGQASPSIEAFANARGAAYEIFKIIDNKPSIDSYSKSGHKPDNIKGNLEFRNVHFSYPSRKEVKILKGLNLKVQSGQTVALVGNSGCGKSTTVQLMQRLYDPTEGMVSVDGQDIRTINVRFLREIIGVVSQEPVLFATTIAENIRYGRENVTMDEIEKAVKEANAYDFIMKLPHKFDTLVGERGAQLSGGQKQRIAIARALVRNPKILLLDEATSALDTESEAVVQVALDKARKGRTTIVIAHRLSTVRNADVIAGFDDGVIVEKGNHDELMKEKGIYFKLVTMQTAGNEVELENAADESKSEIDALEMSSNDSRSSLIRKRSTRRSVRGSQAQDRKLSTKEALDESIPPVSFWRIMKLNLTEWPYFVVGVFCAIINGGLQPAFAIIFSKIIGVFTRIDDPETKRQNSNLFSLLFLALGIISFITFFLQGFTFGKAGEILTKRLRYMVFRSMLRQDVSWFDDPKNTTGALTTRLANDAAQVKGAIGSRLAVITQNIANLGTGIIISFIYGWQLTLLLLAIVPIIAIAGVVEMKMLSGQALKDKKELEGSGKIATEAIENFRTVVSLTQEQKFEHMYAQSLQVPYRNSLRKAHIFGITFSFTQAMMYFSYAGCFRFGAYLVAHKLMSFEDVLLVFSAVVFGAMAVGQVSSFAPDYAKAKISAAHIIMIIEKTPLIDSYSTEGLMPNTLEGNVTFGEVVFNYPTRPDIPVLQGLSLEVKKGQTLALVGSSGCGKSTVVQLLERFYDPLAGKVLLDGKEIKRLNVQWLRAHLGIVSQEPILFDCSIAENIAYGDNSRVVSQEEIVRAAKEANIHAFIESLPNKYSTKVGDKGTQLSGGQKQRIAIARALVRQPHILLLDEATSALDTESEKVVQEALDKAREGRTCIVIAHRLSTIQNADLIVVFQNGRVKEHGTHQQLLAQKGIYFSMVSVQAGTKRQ

SMILES	sensitization of ABCB1-expressing A2780/ADR cells against 33 [1]	EC50 [1] [nM]	IC50 (ABCB1 [2]) [nM]	ABCB1 inhibition (ABCB1 [2])	GI50 (MCF-7 cancer cells) [nM]	IC50 (ABCB1 [3]) [nM]	factor of sensitization of A-549 cells against 33 [4]	Increase Susceptibility toward 33 (Factor) [4]	GI50 (A-549 cancer cells) [nM]
COC(=O)/C(C#N)=C/c1cn(CC(=O)Nc2ccc(OC)cc2)c2ccccc12 [Compound 24, Methyl-2-cyano-3-(1-(2-((4-methoxyphenyl)amino)-2-oxoethyl)-1H-indol-3-yl) Acrylate]	completely sensitized	793 ± 39	983 ± 135	X (Compounds were considered as inhibitors if they reached 20% (+SEM) inhibition compared to the reference inhibitors 33–35; X = fulfilled)	15100 ± 400	1490 ± 50	2.5	2.5	20000 ± 600
COC(=O)/C(C#N)=C/c1cn(CC(=O)Nc2ccc(C)cn2)c2ccccc12 [Compound 30, Methyl-2-cyano-3-(1-(2-((5-methylpyridin-2-yl)amino)-2-oxoethyl)-1H-indol-3-yl) Acrylate]	completely sensitized	1220 ± 10	1510 ± 80	X (Compounds were considered as inhibitors if they reached 20% (+SEM) inhibition compared to the reference inhibitors 33–35; X = fulfilled)	9120 ± 220	2770 ± 20	2.6	2.6	19300 ± 300
